Source: patent US20250034089A1, “TETRAHYDROCARBAZOLE COMPOUND, AND PHARMACEUTICAL COMPOSITION AND USE THEREOF” (NAIN BIOTECH (HANGZHOU) CO., LTD., priority 2021, published 2025)

Assays:
[1] = test system: Hep3B (human liver cancer cells); assay: In vitro proliferation inhibition (CCK-8), Hep3B; type: cell-based; settings: for IC50: Homo sapiens
Source text: • 1) Cell sources: HeLa (human cervical cancer cells), CaSki (human cervical cancer intestinal metastasis cells), Huh7 (human liver cancer cells), HepG2 (human liver cancer cells), Hep3B (human liver cancer cells) were purchased from the Chinese Academy of Sciences cell bank (Shanghai); LO2 (human normal liver cells) and HcerEpic (human normal uterine epithelial cells) were from ATCC. • 2) Cell culture and passage: The cell culture and passage method is the same as that described in “The inhibitory effect of compounds on the OCT4 protein in tumor stem cells (CSC)”. • 3) Cell dosing treatment: The each type of cells mentioned above was digested, counted, and inoculated in each well of the 96 well cell culture plate (#3988, Corning) at a density of 5000 cells/200 μl culture medium. They were cultured in a cell culture incubator at 37° C. and 5% CO2 for 24 hours to allow the cells to fully adherent to the wall. Then, the original culture medium was replaced with complete culture medium containing gradient diluted KZT-A5 (each concentration with 3 repeated wells) as well as DMSO (#D5879, Sigma Aldrich) solvent control, and they are cultured for additional 72 hours. • 4) Pharmacodynamic test and statistics: First, the morphology of cells treated with the above compounds was observed, photographed and recorded using an inverted phase contrast microscope (X71, Olympus). Then the original culture medium was replaced with phenol red free culture medium containing CCK-8 detection reagent (#E606335, Shanghai Shenggong) respectively, and they are cultured in the incubator for additional 2 hours. Then the OD450 nm absorbance value (OD value) was measured on a multifunctional enzyme-linked immunosorbent assay (168-1130, Bio Rad). After the cells were treated with the test compound, the equations for calculating the cell survival rate or cell growth rate is: survival rate=GD value of the treated group/OD value of the control group×100%; the equations for calculating the growth inhibition rate of compounds on cell proliferation is: inhibition rate=(OD value of control group−OD value of the treated group)/OD value of control group×100%. Further, the IC50 of each compound was calculated in SPSS based on the inhibition rate. […]

[2] = test system: JAK1/2-STAT3 signaling pathway; assay: Inhibitory effect on JAK/STAT signaling pathway biomarkers in HeLa cells (Western blot); type: cell-based, human; settings: HeLa 3A11, 1, 10, 100 μM, 72 hours, FIG. 4
Method: • 1) Cell source: HeLa cell line 3A11 with endogenous high expression of OCT4, prepared by the inventor's laboratory. • 2) Cell culture and passage: The cell culture and passage method is the same as that described in “The inhibitory effect of compounds on the OCT4 protein in tumor stem cells (CSC)”. • 3) Cell dosing treatment: The above-mentioned HeLa cells were digested, counted, and inoculated into each well of the 96 well cell culture plate (#3988, Corning) at a density of 5000 cells/200 μl culture medium. They were cultured in a cell culture incubator at 37° C. and 5% CO2 for 24 hours to allow the cells to fully adherent to the wall. Then, the original culture medium was replaced with complete culture medium containing 1 μM, 10 μM, and 100 μM KZT compounds or AH057 (each compound at each concentration with 3 repeated wells) as well as DMSO (#D5879, Sigma Aldrich) solvent control, and they are cultured for additional 72 hours. • 4) Preparation of test samples: The preparation of test samples method is the same as that described in “The inhibitory effect of compounds on the OCT4 protein in tumor stem cells (CSC)”. • 5) Detection of JAK/STAT signaling pathway biomarker: HeLa cells have been reported to continuously activate JAK1/2 and further activate STAT3 through the IL-6 autocrine pathway. […]

## COc1cc(/C=C2\CCc3c([nH]c4ccc(C)cc34)C2=O)ccc1O [KZT-A5]
[1]; 72 hours, CCK-8, average of three wells in one test
  IC50: 36.6 µM
[1]; test (2), average±standard deviation of three wells
  IC50: 23.5 ± 1.51 µM
[1]; Table 3
  inhibitory effect compared with AH057: comparable to AH057
[2]
  inhibition of activation of JAK1/2-STAT3 signaling pathway: effectively inhibit the activation of the JAK1/2-STAT3 signaling pathway in a dose-dependent manner
